Results on 19 molecules are retold here after patent US20260001914A1, “MACROCYCLIC PEPTIDES TARGETING KRAS” (Merck Sharp & Dohme LLC, priority 2022, published 2026).

Each structure is given as a SMILES string. *1 amine or outer side, *2 acyl side, *3 side chain or, on linkers, in order; H or OH if unused. Where a SMILES comes first, the peptide text is derived from it. Bridges are numbered along the chain shown (N, C = ends). [ ]: non-standard residue; d: D form. Ala(1-bicyclo(1.1.1)pentyl) = N[C@@H](CC12CC(C1)C2)C(=O)O; NMeNva(5-imidazol-1-yl) = CN[C@@H](CCCn1ccnc1)C(=O)O; Phe(4-guanidino) = N=C(N)Nc1ccc(C[C@H](N)C(=O)O)cc1; Ala(pyrimidin-5-yl) = N[C@@H](Cc1cncnc1)C(=O)O; NMe3Pal(6-Me) = CN[C@@H](Cc1ccc(C)nc1)C(=O)O; X6 = O=C([C@H](Cc1cnn(C2COC2)c1)N[*:1])[*:2]; NMePhe(3-Me) = CN[C@@H](Cc1cccc(C)c1)C(=O)O; X27 = Cc1ccc(C[C@H](N[*:1])C(=O)[*:2])cn1; X11 = CC(C)(F)CC[C@H](N[*:1])C(=O)[*:2]; X13 = O=C([C@H](Cc1ccncc1F)N[*:1])[*:2]; Nle(5,5-F2) = CC(F)(F)CC[C@H](N)C(=O)O; X2 = O=C([C@H](Cc1ccccc1F)O[*:1])[*:2]; Ala(cPent) = N[C@@H](CC1CCCC1)C(=O)O; Phe(2-F) = N[C@@H](Cc1ccccc1F)C(=O)O; X31 = O=C([C@H](CCC1CC1)N[*:1])[*:2]; Abu(4,4-F2) = N[C@@H](CC(F)F)C(=O)O; NMe3Pal = CN[C@@H](Cc1cccnc1)C(=O)O; X1 = O=C(C12CC(CN[*:1])(C1)C2)[*:2]; NMeCha = CN[C@@H](CC1CCCCC1)C(=O)O; NMeLys(Me) = CNCCCC[C@H](NC)C(=O)O; NMeOrn(Me) = CNCCC[C@H](NC)C(=O)O; Ala(cPr) = N[C@@H](CC1CC1)C(=O)O; NMeF = CN[C@@H](Cc1ccccc1)C(=O)O; PhLac = O=C(O)[C@@H](O)Cc1ccccc1; 3Pal = N[C@@H](Cc1cccnc1)C(=O)O; Ahp(2) = CCCCC[C@H](N)C(=O)O; Cba = N[C@@H](CC1CCC1)C(=O)O; hLeu = CC(C)CC[C@H](N)C(=O)O; NMeS = CN[C@@H](CO)C(=O)O; αMeC = C[C@](N)(CS)C(=O)O; NMeA = CN[C@@H](C)C(=O)O; Nle = CCCC[C@H](N)C(=O)O Where only a bound is given, the exact number is not on record here.

The target of this assay is phosphorylation levels of ERK1/2 in AsPC-1 (homozygous KRAS-G12D) cells (Homo sapiens, UniProt P01116, G12D). Nature of the assay: Cellular phospho-ERK assay in AsPC-1 cells (Alpha Screen), assay medium without fetal bovine serum.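 Further: signal taken as phospho-ERK over total ERK per well, both detected in one multiplex bead assay, EC50 from four-parameter logistic fit of dose-response curves.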 Format: cell-based. The note with it: phospho-ERK AlphaScreen, 18 h. On the technique in general: Alpha assays give light when donor and acceptor beads are brought close together.
phosphorylation levels of ERK1/2 in AsPC-1 (homozygous KRAS-G12D) cells, sequence (P01116 1-186 G12D): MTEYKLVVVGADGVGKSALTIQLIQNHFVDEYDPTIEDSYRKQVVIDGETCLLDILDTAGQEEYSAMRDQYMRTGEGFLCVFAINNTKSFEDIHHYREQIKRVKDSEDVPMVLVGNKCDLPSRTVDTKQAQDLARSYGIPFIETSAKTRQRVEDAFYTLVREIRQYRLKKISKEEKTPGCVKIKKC
For `CCCCC[C@@H]1NC(=O)[C@H](Cc2ccc(OC)cc2)NC(=O)[C@H](CC2CCC2)NC(=O)[C@H](Cc2ccc(NC(=N)N)cc2)NC(=O)[C@H](CCCCNC)N(C)C(=O)[C@H](Cc2ccccc2)NC(=O)CSC[C@@](C)(C(N)=O)NC(=O)[C@H](Cc2ccccc2)N(C)C1=O` [compound 360, cyclo(F-NMeLysMe-Phe4Gn-cBuA-TyrOMe-Ahp-NMeF-aMeCl-ClAc)] ({CH2CO}-F[NMeLys(Me)][Phe(4-guanidino)][Cba]Y(Me)[Ahp(2)][NMeF][αMeC]-NH2; thioether N-8), the half-maximal effective concentration (EC50) – broadly, the concentration at which the effect is half-maximal – is greater than 50.8 µM.
Molecule `CCCCC[C@@H]1NC(=O)[C@H](Cc2ccc(OC)cc2)NC(=O)[C@H](CC2CCC2)NC(=O)[C@H](Cc2ccc(N3CCC[C@H]3CN)cc2)NC(=O)[C@H](CCCNC(=N)N)NC(=O)[C@H](Cc2ccccc2)NC(=O)CSC[C@@](C)(C(N)=O)NC(=O)[C@H](Cc2ccccc2)N(C)C1=O` [compound 392, cyclo(F-R-Phe4SamPyrr-cBuA-TyrOMe-Ahp-NMeF-aMeCl-ClAc)] gave an EC50 greater than 50.8 µM.
`CCCC[C@@H]1NC(=O)[C@H](Cc2cccnc2)NC(=O)[C@H](C)N(C)C(=O)[C@H](Cc2ccc(C)nc2)NC(=O)C23CC(CNC(=O)[C@H](Cc4cccnc4)N(C)C(=O)[C@H](CCCC)NC(=O)[C@H](Cc4ccccc4F)NC1=O)(C2)C3` [compound 164, cyclo(4Me3Pal-NMeA-3Pal-Nle-Phe2F-Nle-NMe3Pal-amBCP)] (cyclo([3Pal][Nle][Phe(2-F)][Nle][NMe3Pal][X1][X27][NMeA])) registered an EC50 greater than 50.8 µM.
`CCCCC[C@@H]1NC(=O)[C@H](Cc2ccc(OC)cc2)NC(=O)[C@H](CC2CCCC2)NC(=O)[C@H](Cc2ccc(NC(=N)N)cc2)NC(=O)[C@H](CCCNC(=N)N)NC(=O)[C@H](Cc2ccccc2)NC(=O)CSC[C@@](C)(C(N)=O)NC(=O)[C@H](Cc2ccccc2)N(C)C1=O` [compound 366, cyclo(F-R-Phe4Gn-cPeA-TyrOMe-Ahp-NMeF-aMeCl-ClAc)] ({CH2CO}-FR[Phe(4-guanidino)][Ala(cPent)]Y(Me)[Ahp(2)][NMeF][αMeC]-NH2; thioether N-8) showed an EC50 of 12.2 µM.
Next, `CCCC[C@@H]1NC(=O)[C@H](Cc2cccnc2)NC(=O)[C@H](C)N(C)C(=O)[C@H](Cc2ccccc2)OC(=O)C23CC(CNC(=O)[C@H](Cc4ccc(C)nc4)N(C)C(=O)[C@H](CCCC)NC(=O)[C@H](Cc4ccccc4F)NC1=O)(C2)C3` [compound 402, cyclo(FLac-NMeA-3Pal-Nle-Phe2F-Nle-NMe3Pal4Me-amBCP)] (cyclo([3Pal][Nle][Phe(2-F)][Nle][NMe3Pal(6-Me)][X1][PhLac][NMeA])): 9.95 µM; `C[C@H]1C(=O)N[C@@H](Cc2cncnc2)C(=O)N[C@@H](CC2CCC2)C(=O)N[C@@H](Cc2ccccc2F)C(=O)N[C@@H](CCC2CC2)C(=O)N(C)[C@@H](Cc2ccccc2)C(=O)NCC23CC(C2)(C3)C(=O)O[C@@H](Cc2ccccc2)C(=O)N1C` [compound 115, cyclo(FLac-NMeA-PyrimAla-cBuA-Phe2F-hcPrA-NMeF-amBCP)] (cyclo([Cba][Phe(2-F)][X31][NMeF][X1][PhLac][NMeA][Ala(pyrimidin-5-yl)])): 0.437 µM; `CCCC[C@@H]1NC(=O)[C@H](Cc2cccnc2)NC(=O)[C@H](C)N(C)C(=O)[C@H](Cc2ccccc2)OC(=O)C23CC(CNC(=O)[C@H](Cc4cccnc4)N(C)C(=O)[C@H](CCCC)NC(=O)[C@H](Cc4ccccc4F)NC1=O)(C2)C3` [compound 244, cyclo(FLac-NMeA-3Pal-Nle-Phe2F-Nle-NMe3Pal-amBCP)] (cyclo([3Pal][Nle][Phe(2-F)][Nle][NMe3Pal][X1][PhLac][NMeA])): 7.3 µM.
Next, `C[C@H]1C(=O)N[C@@H](Cc2cncnc2)C(=O)N[C@@H](CC2CC2)C(=O)N[C@@H](Cc2ccccc2F)C(=O)N[C@@H](CC2CC2)C(=O)N(C)[C@@H](Cc2ccccc2)C(=O)NCC23CC(C2)(C3)C(=O)O[C@@H](Cc2ccccc2)C(=O)N1C` [compound 267, cyclo(FLac-NMeA-PyrimAla-cPrA-Phe2F-cPrA-NMeF-amBCP)] (cyclo([Ala(cPr)][NMeF][X1][PhLac][NMeA][Ala(pyrimidin-5-yl)][Ala(cPr)][Phe(2-F)])): 9.13 µM; `CC(C)CC[C@@H]1NC(=O)[C@H](Cc2ccccc2F)NC(=O)[C@H](CC(F)F)NC(=O)[C@H](Cc2cncnc2)NC(=O)[C@H](C)N(C)C(=O)[C@H](Cc2ccccc2)OC(=O)C23CC(CNC(=O)[C@H](Cc4ccccc4)N(C)C1=O)(C2)C3` [compound 304, cyclo(FLac-NMeA-PyrimAla-AbuF2-Phe2F-hL-NMeF-amBCP)] (cyclo([NMeA][Ala(pyrimidin-5-yl)][Abu(4,4-F2)][Phe(2-F)][hLeu][NMeF][X1][PhLac])): 1.87 µM.
With `CCCCC[C@@H]1NC(=O)[C@H](Cc2ccc(OC)cc2)NC(=O)[C@H](CC2CCC2)NC(=O)[C@H](Cc2ccc(=O)[nH]c2)NC(=O)[C@H](CCCNC(=N)N)NC(=O)[C@H](Cc2ccccc2)NC(=O)CSC[C@@](C)(C(N)=O)NC(=O)[C@H](Cc2ccccc2)N(C)C1=O` [compound 369, cyclo(F-R-4CO3Pal-cBuA-TyrOMe-Abp-NMeF-aMeCl-ClAc)], the EC50 was greater than 50.8 µM.
Next, `C[C@H]1C(=O)N[C@@H](Cc2cncnc2)C(=O)N[C@@H](CC2CCC2)C(=O)N[C@@H](Cc2ccccc2F)C(=O)N[C@@H](CCC(C)(C)F)C(=O)N(C)[C@@H](Cc2ccccc2)C(=O)NCC23CC(C2)(C3)C(=O)O[C@@H](Cc2ccccc2)C(=O)N1C` [compound 225, cyclo(FLac-NMeA-PyrimAla-cBuA-Phe2F-hL3F-NMeF-amBCP)] (cyclo([Cba][Phe(2-F)][X11][NMeF][X1][PhLac][NMeA][Ala(pyrimidin-5-yl)])): 0.674 µM.
With `CCCCC[C@@H]1NC(=O)[C@H](Cc2ccc(OC)cc2)NC(=O)[C@H](CC2CCC2)NC(=O)[C@H](Cc2cncnc2)NC(=O)[C@H](CCCNC)N(C)C(=O)[C@H](Cc2ccccc2)NC(=O)CSC[C@@](C)(C(N)=O)NC(=O)[C@H](Cc2ccc(C)nc2)N(C)C1=O` [compound 394, cyclo(F-NMeOmMe-PyrimAla-cBuA-TyrOMe-Ahp-NMe3Pal4Me-aMeCl-ClAc)] ({CH2CO}-F[NMeOrn(Me)][Ala(pyrimidin-5-yl)][Cba]Y(Me)[Ahp(2)][NMe3Pal(6-Me)][αMeC]-NH2; thioether N-8), the EC50 was greater than 50.8 µM.
`CC(C)CC[C@@H]1NC(=O)[C@H](Cc2ccccc2F)NC(=O)[C@H](CC23CC(C2)C3)NC(=O)[C@H](Cc2cncnc2)NC(=O)[C@H](C)N(C)C(=O)[C@H](Cc2ccccc2)OC(=O)C23CC(CNC(=O)[C@H](Cc4ccccc4)N(C)C1=O)(C2)C3` [compound 272, cyclo(FLac-NMeA-PyrimAla-AlaPent-Phe2F-hL-NMeF-amBCP)] (cyclo([NMeA][Ala(pyrimidin-5-yl)][Ala(1-bicyclo(1.1.1)pentyl)][Phe(2-F)][hLeu][NMeF][X1][PhLac])) gave an EC50 of 2.95 µM.
`CCCC[C@@H]1NC(=O)[C@H](Cc2cncnc2)NC(=O)[C@H](CCCn2ccnc2)N(C)C(=O)[C@H](Cc2ccccc2)OC(=O)C23CC(CNC(=O)[C@H](Cc4cccnc4)N(C)C(=O)[C@H](CCCC)NC(=O)[C@H](Cc4ccccc4F)OC1=O)(C2)C3` [compound 246, cyclo(FLac-NMeNvalmid-PyrimAla-Nle-F2FLac-Nle-NMe3Pal-amBCP)] (cyclo([NMe3Pal][X1][PhLac][NMeNva(5-imidazol-1-yl)][Ala(pyrimidin-5-yl)][Nle][X2][Nle])) yielded an EC50 greater than 50.8 µM.
As for `Cc1cccc(C[C@H]2C(=O)NCC34CC(C3)(C4)C(=O)O[C@@H](Cc3ccccc3)C(=O)N(C)[C@@H](C)C(=O)N[C@@H](Cc3cncnc3)C(=O)N[C@@H](CC3CC3)C(=O)N[C@@H](Cc3ccncc3F)C(=O)N[C@@H](CCC(C)C)C(=O)N2C)c1` [compound 279, cyclo(FLac-NMeA-PyrimAla-cPrA-4Pal2F-hL-NMePhe3Me-amBCP)] (cyclo([Ala(cPr)][X13][hLeu][NMePhe(3-Me)][X1][PhLac][NMeA][Ala(pyrimidin-5-yl)])), it took 4.02 µM to reach a half-maximal effect (EC50).
Regarding `CCCC[C@@H]1NC(=O)[C@H](Cc2cccnc2)NC(=O)[C@H](COC)N(C)C(=O)[C@H](Cc2ccccc2)OC(=O)C23CC(CNC(=O)[C@H](Cc4cccnc4)N(C)C(=O)[C@H](CCCC)NC(=O)[C@H](Cc4ccccc4F)NC1=O)(C2)C3` [compound 255, cyclo(FLac-nMeSMe-3Pal-Nle-Phe2F-Nle-NMe3Pal-amBCP)] (cyclo([3Pal][Nle][Phe(2-F)][Nle][NMe3Pal][X1][PhLac][NMeS](Me))), the EC50 is greater than 50.8 µM.
Take `C[C@H]1C(=O)N[C@@H](Cc2cnn(C3COC3)c2)C(=O)N[C@@H](CC2CC2)C(=O)N[C@@H](Cc2ccccc2F)C(=O)N[C@@H](CCC(C)(F)F)C(=O)N(C)[C@@H](Cc2ccccc2)C(=O)NCC23CC(C2)(C3)C(=O)O[C@@H](Cc2ccccc2)C(=O)N1C` [compound 291, cyclo(FLac-NMcA-AlaPyzlOx-cPrA-Phe2F-Nle3F2-NMeF-amBCP)] (cyclo([Ala(cPr)][Phe(2-F)][Nle(5,5-F2)][NMeF][X1][PhLac][NMeA][X6])): the EC50 was 3.25 µM.
In turn, `CCCC[C@@H]1NC(=O)[C@H](Cc2cccnc2)NC(=O)[C@H](C)N(C)C(=O)[C@H](Cc2ccccc2)OC(=O)C23CC(CNC(=O)[C@H](CC4CCCCC4)N(C)C(=O)[C@H](CCCC)NC(=O)[C@H](Cc4ccccc4F)NC1=O)(C2)C3` [compound 232, cyclo(FLac-NMeA-3Pal-Nle-Phe2F-Nle-NMeCha-amBCP)] (cyclo([3Pal][Nle][Phe(2-F)][Nle][NMeCha][X1][PhLac][NMeA])) yielded an EC50 greater than 50.8 µM.
The molecule `CCCCC[C@@H]1NC(=O)[C@H](Cc2ccc(OC)cc2)NC(=O)[C@H](CC2CCC2)NC(=O)[C@H](Cc2ccc(NC(=N)N)cc2)NC(=O)[C@H](CCCNC)N(C)C(=O)[C@H](Cc2ccccc2)NC(=O)CSC[C@@](C)(C(N)=O)NC(=O)[C@H](Cc2ccccc2)N(C)C1=O` [compound 385, cyclo(F-NMeOrnMe-Phe4Gn-cBuA-TyrOMe-Ahp-NMeF-aMeCl-ClAc)] ({CH2CO}-F[NMeOrn(Me)][Phe(4-guanidino)][Cba]Y(Me)[Ahp(2)][NMeF][αMeC]-NH2; thioether N-8) had an EC50 greater than 50.8 µM.
